Source: publication PMC7904790 (Nature Communications, 2021)
Where two headings read alike, the source gives them in different places. Values belong to the compound of their own block, whether it stands above or below them.

Columns and labels:
[1] = system: T1, EML4-ALK WT; assay: cells; design: CellTiter-Glo viability of Ba/F3 cells dependent on EML4-ALK, without IL-3; details: Ba/F3 EML4-ALK, 72 h
T1 construct: EML4-ALK fusion, wild-type kinase domain, expressed in Ba/F3 cells
Procedure: To identify drugs that can overcome these mutations, we screened our focused 90-inhibitor library using Ba/F3 cells expressing EML4-ALK I1171N + F1174I and I1171N + L1198H. At a concentration of 50 nM, gilteritinib suppressed the viability of both wild-type (WT) and compound mutant Ba/F3 cells (Fig. 1a). Since gilteritinib has reported as multi-kinase inhibitor, we first evaluated whether the ALK inhibitory efficacy of gilteritinib is driven by on-target activity or not. As a result of western blot analysis, gilteritinib suppressed the autophosphorylation of ALK in EML4-ALK-expressing Ba/F3 cells (Fig. 1b and Supplementary Fig. 1). […] As well as Ba/F3 cell model, we verified the activity of gilteritinib to H3122 cell line that is EML4-ALK-positive NSCLC cells. […] Then, the inhibitory concentration of gilteritinib is matched between ALK phosphorylation and its downstream signals. […] Further, using the phosphoproteomics data, kinase substrate-enrichment analysis (KSEA) predicted activate kinase candidates as potential gilteritinib targets and identified ALK as the most likely regulated protein (Fig. 1e, Supplementary Figs. 3 and 4, and Supplementary Table 2). To establish Ba/F3 cells expression WT or mutant EML4-ALK, TPM3-NTRK1, and CD74-ROS1 fusion proteins, pLenti6.3 vectors containing the cDNA of these fusion oncogenes were transfected into 293FT cells using packaging plasmids (ViraPower) for lentivirus production. Ba/F3 cells were infected using lentivirus-containing medium supplemented with polybrene (8 μg/ml), and after 24 h of incubation, the infected cells were selected using 7 μg/ml blasticidin (Invitrogen) for 1 week. After selection, each EML4-ALK-, TPM3-NTRK1-, and CD74-ROS1-expressing cell line was cultured in D-10 without IL-3. […] To stablise H3122, JFCR-028-3, MCC-003 cells expression WT or mutant EML4-ALK, KRAS G12C, cells were infected using lentivirus-containing medium supplemented with polybrene (8 μg/ml). After 24 h of incubation, the infected cells were selected using 7 μg/ml blasticidin for H3122, JFCR028-3, and 10 μg/ml for MCC-003, respectively. To stablise H3122 cells expression AXL, pHAGE-AXL vector (purchased from addgene) was transfected into 293FT cells using packaging plasmids for lentivirus production. H3122 cells were infected using lentivirus-containing medium supplemented with polybrene (8 μg/ml), and after 24 h of incubation, EGFP-positive cells were sorted using FACSMelody (BD Bioscience, San Jose, CA, USA). To stablise NIH3T3 oncogene-expressing cells, cells were infected using lentivirus-containing medium supplemented with polybrene (8 μg/ml), and after 24 h of incubation, the infected cells were selected using 2 μg/ml blasticidin for 1 week.

[2] = system: KARPAS299; assay: cells; design: CellTiter-Glo viability of fusion-positive human cancer cell lines; details: Homo sapiens, KARPAS-299, 72 h
[3] = system: H3122; assay: cells; design: CellTiter-Glo viability of fusion-positive human cancer cell lines; details: Homo sapiens, NCI-H3122, 72 h
[4] = system: H2228; assay: cells; design: CellTiter-Glo viability of fusion-positive human cancer cell lines; details: Homo sapiens, NCI-H2228, 72 h
[5] = system: JFCR-018-1; assay: cells; design: CellTiter-Glo viability of fusion-positive human cancer cell lines; details: 72 h
[6] = system: JFCR-028-3; assay: cells; design: CellTiter-Glo viability of fusion-positive human cancer cell lines; details: 72 h
[7] = system: MCC-003; assay: cells; design: CellTiter-Glo viability of fusion-positive human cancer cell lines; details: 72 h
[8] = in vitro; design: CellTiter-Glo viability of parental Ba/F3 cells with IL-3 (counter-screen); details: mouse, parental ba/f3 cells +il-3; with IL-3; read-out: IC50 parental Ba/F3 (+IL-3)
Procedure: To identify drugs that can overcome these mutations, we screened our focused 90-inhibitor library using Ba/F3 cells expressing EML4-ALK I1171N + F1174I and I1171N + L1198H. At a concentration of 50 nM, gilteritinib suppressed the viability of both wild-type (WT) and compound mutant Ba/F3 cells (Fig. 1a). Since gilteritinib has reported as multi-kinase inhibitor, we first evaluated whether the ALK inhibitory efficacy of gilteritinib is driven by on-target activity or not. As a result of western blot analysis, gilteritinib suppressed the autophosphorylation of ALK in EML4-ALK-expressing Ba/F3 cells (Fig. 1b and Supplementary Fig. 1). […] As well as Ba/F3 cell model, we verified the activity of gilteritinib to H3122 cell line that is EML4-ALK-positive NSCLC cells. […] Then, the inhibitory concentration of gilteritinib is matched between ALK phosphorylation and its downstream signals. […] Further, using the phosphoproteomics data, kinase substrate-enrichment analysis (KSEA) predicted activate kinase candidates as potential gilteritinib targets and identified ALK as the most likely regulated protein (Fig. 1e, Supplementary Figs. 3 and 4, and Supplementary Table 2).  Fig. 1 Identification of gilteritinib as an inhibitor of ALK-rearranged cancer cells. a Relative cell viability of parental (with IL-3), EML4-ALK wild-type (WT), EML4-ALK I1171N + F1174I, and EML4-ALK I1171N + L1198H Ba/F3 cells treated with 50 nM of the indicated inhibitors. Cell viability was analyzed using the CellTiter-Glo assay and calculated relative to the viability of dimethyl sulfoxide-treated Ba/F3 cells. b The suppression of phospho-ALK in I1171N + F1174I, I1171N + L1198H mutation-expressing Ba/F3 cells was evaluated using western blotting. Cells were treated with the indicated concentrations of gilteritinib for 3 h (n = 2). c The suppression of phospho-ALK and its downstream signals in H3122 parental cells and I1171N + F1174I compound mutation-expressing cells were evaluated using western blotting. […] N = 3 independent samples examined over three independent experiments and representative experiment data are presented as mean values ± SD. e Volcano plot displaying the −log10 (p-value) versus log2 (gilteritinib treatment/DMSO treatment) for all quantified phosphopeptides. The red diamond indicates phospho-ALK.

IC50 ([2]; read-out: Brigatinib IC50): 7.1 ± 2 nM | IC50 ([3]; read-out: Brigatinib IC50): 7.9 ± 3.7 nM | IC50 ([4]; read-out: Brigatinib IC50): 3.5 ± 1 nM
SMILES: COc1cc(N2CCC(N3CCN(C)CC3)CC2)ccc1Nc1ncc(Cl)c(Nc2ccccc2P(C)(C)=O)n1 [Brigatinib]
IC50 [1]: […] | IC50 ([5]; read-out: Brigatinib IC50): 7.7 ± 0.46 nM | IC50 ([6]; read-out: Brigatinib IC50): 6.2 ± 1.5 nM | IC50 ([7]; read-out: Brigatinib IC50): 63 ± 11 nM | CC50 at 72 h [8]: 578 ± 113 nM

IC50 ([2]; read-out: Ceritinib IC50): 16 ± 6.9 nM | IC50 ([3]; read-out: Ceritinib IC50): 15 ± 2.1 nM | IC50 ([4]; read-out: Ceritinib IC50): 10 ± 3.6 nM
SMILES: Cc1cc(Nc2ncc(Cl)c(Nc3ccccc3S(=O)(=O)C(C)C)n2)c(OC(C)C)cc1C1CCNCC1 [Ceritinib]
IC50 [1]: […] | IC50 ([5]; read-out: Ceritinib IC50): 30 ± 3 nM | IC50 ([6]; read-out: Ceritinib IC50): 12 ± 3.3 nM | IC50 ([7]; read-out: Ceritinib IC50): 74 ± 22 nM | CC50 at 72 h [8]: 623 ± 33 nM

IC50 ([2]; read-out: Crizotinib IC50): 51 ± 5.3 nM | IC50 ([4]; read-out: Crizotinib IC50): 28 ± 14 nM
SMILES: C[C@@H](Oc1cc(-c2cnn(C3CCNCC3)c2)cnc1N)c1c(Cl)ccc(F)c1Cl [Crizotinib]
IC50 [1]: […] | IC50 ([5]; read-out: Crizotinib IC50): 136 ± 14 nM | CC50 at 72 h [8]: 371 ± 50 nM

IC50 ([2]; read-out: Alectinib IC50): 43 ± 7.5 nM | IC50 ([4]; read-out: Alectinib IC50): 3.8 ± 1.2 nM
SMILES: CCc1cc2c(cc1N1CCC(N3CCOCC3)CC1)C(C)(C)c1[nH]c3cc(C#N)ccc3c1C2=O [alectinib]
IC50 [1]: […] | IC50 ([7]; read-out: Alectinib IC50): 765 ± 97 nM | CC50 at 72 h [8]: 899 ± 12 nM
